The source of these data is US20080207572A1, “Use of Dual C-Kit/Fgfr3 Inhibitors for Treating Multiple Myeloma” (AB Science, priority 2005, published 2008).

The structures appear in SMILES notation.

What all share (type): cell-based
Assay [1] has as its system cell line (Ba/F3-derived) expressing JMΔ27. Put plainly: Apoptosis induction in Ba/F3-derived cell line. The protocol:
(§1) In this experiment, after 48 hours, 0.1 μM AB1010 induced apoptosis of approximately 50% versus control cells in which 10% of cells were apoptotic. In addition, a separate cell line (Ba/F3-derived) expressing JMΔ27 was tested and apoptosis was induced to a level of approximately 85%.

The test system of assay [2] is human mast cell line expressing the JMΔ27 mutated c-kit. The assay can be described thus: Apoptosis induction in mast cell line. The following applies: 0.1 μM, after 48 hours; control cells 10% apoptotic. The protocol: as §1
The subject of assay [3] is t(4; 14) FGFR3+ human plasma cell line LP1. The assay can be described thus: FGF-enhanced proliferation (3H-Thymidine uptake). The following applies: in the presence of FGF; FIG. 2. The source says: In the presence of FGF, the proliferation of the t(4; 14) FGFR3+ human plasma cell line is enhanced, as measured by 3H-Thymidine uptake.

With `Cc1ccc(NC(=O)c2ccc(CN3CCN(C)CC3)cc2)cc1Nc1nc(-c2cccnc2)cs1` [AB1010], the apoptosis induced entry in assay [1] was “approximately 85%”; in assay [2] it was “approximately 50%”. Besides, the “inhibition of FGF-enhanced proliferation” value in assay [3] was “inhibit the FGF-enhanced proliferation”.
